Legend:
Test in all cases: preservation efficacy test (PET), European Pharmacopoeia 5.1.3
Format in all cases: cell-based
Escherichia coli = settings: for EC germ count, 2 days / count at 2 days: 2 days after inoculation; for EC germ count, 7 days / count at 7 days: 7 days after inoculation; for EC germ count, 14 days / count at 14 days: 14 days after inoculation; for EC germ count, 28 days / count at 28 days: 28 days after inoculation; for count at 7 days / count at 14 days / count at 28 days / count at 2 days: EC, use concentration in label
Candida albicans = settings: for CA germ count, 28 days / count at 28 days: 28 days after inoculation; for CA germ count, 28 days / CA germ count, 2 days / CA germ count, 7 days / CA germ count, 14 days: substance at given % in test formulation; for count at 7 days / count at 14 days / count at 28 days: CA, use concentration in label; for count at 7 days / CA germ count, 7 days: 7 days after inoculation; for count at 14 days / CA germ count, 14 days: 14 days after inoculation; for CA germ count, 2 days: 2 days after inoculation
Staphylococcus aureus = settings: for SA germ count, 2 days / count at 2 days: 2 days after inoculation; for SA germ count, 7 days / count at 7 days: 7 days after inoculation; for count at 2 days / count at 7 days / count at 14 days / count at 28 days: SA, use concentration in label; for count at 14 days / SA germ count, 14 days: 14 days after inoculation; for count at 28 days / SA germ count, 28 days: 28 days after inoculation
Pseudomonas aeruginosa = settings: for count at 2 days / count at 7 days / count at 14 days / count at 28 days: PA, use concentration in label; for count at 2 days / PA germ count, 2 days: 2 days after inoculation; for count at 7 days / PA germ count, 7 days: 7 days after inoculation; for count at 14 days / PA germ count, 14 days: 14 days after inoculation; for count at 28 days / PA germ count, 28 days: 28 days after inoculation
[1] = substance at given % in test formulation

| SMILES | EC germ count, 2 days (Escherichia coli; [1]) | EC germ count, 7 days (Escherichia coli; [1]) | EC germ count, 14 days (Escherichia coli; [1]) | EC germ count, 28 days (Escherichia coli; [1]) | CA germ count, 28 days (Candida albicans) | SA germ count, 2 days (Staphylococcus aureus; [1]) | SA germ count, 7 days (Staphylococcus aureus; [1]) | count at 2 days (Pseudomonas aeruginosa) | count at 7 days (Pseudomonas aeruginosa) | count at 14 days (Pseudomonas aeruginosa) | count at 28 days (Pseudomonas aeruginosa) | count at 7 days (Escherichia coli) | count at 14 days (Escherichia coli) | count at 28 days (Escherichia coli) | count at 2 days (Staphylococcus aureus) | count at 7 days (Staphylococcus aureus) | count at 14 days (Staphylococcus aureus) | count at 28 days (Staphylococcus aureus) | count at 14 days (Candida albicans) | count at 28 days (Candida albicans) | further results |
| --- | --- | --- | --- | --- | --- | --- | --- | --- | --- | --- | --- | --- | --- | --- | --- | --- | --- | --- | --- | --- | --- |
| CCCCCC(O)CO (stereo not drawn) [0.2% 1.2-heptanediol] | 780.000 | 83.000 | 11.000 | 180 | 310.000 | 12.000 | 1 |  |  |  |  |  |  |  |  |  |  |  |  |  |  |
| CC(C)=CCC/C(C)=C/CC/C(C)=C/CO [0.3% farnesol] |  |  |  |  |  |  |  | 460.000 | 380.000 | 610.000 | 65.000 | 390.000 | 12.000 | 1.000 | 720.000 | 52.000 | 100.000 | 33.000 |  |  | count at 7 days (Candida albicans): 880.000 |
| CCCCCC(O)CO (stereo not drawn) [0.4 % 1,2-heptanediol] |  |  |  |  |  |  |  | 1 | 1 | 1 | 1 | 1 | 1 | 1 | 1 | 1 | 1 | 1 | 590 | 27 | count at 2 days (Escherichia coli): 140; count at 7 days (Candida albicans): 39.000 |
| CCCCCC(O)C(C)O (stereo not drawn) [0.1% 2,3-octanediol] |  |  |  |  |  |  |  |  |  |  |  |  |  |  |  |  |  |  |  |  | PA germ count, 7 days (Pseudomonas aeruginosa; in wet wipes): 630.000; PA germ count, 14 days (Pseudomonas aeruginosa; in wet wipes): 310.000; PA germ count, 28 days (Pseudomonas aeruginosa; in wet wipes): 27.000; EC germ count, 14 days (Escherichia coli; in wet wipes): 850.000; EC germ count, 28 days (Escherichia coli; in wet wipes): 1.600; SA germ count, 2 days (Staphylococcus aureus; in wet wipes): 50; SA germ count, 7 days (Staphylococcus aureus; in wet wipes): 50; SA germ count, 14 days (Staphylococcus aureus; in wet wipes): 50; SA germ count, 28 days (Staphylococcus aureus; in wet wipes): 50 |
| CCCCCCC(O)CO (stereo not drawn) [0.2% 1,2-octanediol] | 1 | 1 | 1 | 1 | 1 | 1 | 1 |  |  |  |  |  |  |  |  |  |  |  |  |  | PA germ count, 2 days (Pseudomonas aeruginosa; [1]): 1; PA germ count, 7 days (Pseudomonas aeruginosa; [1]): 1; PA germ count, 14 days (Pseudomonas aeruginosa; [1]): 1; PA germ count, 28 days (Pseudomonas aeruginosa; [1]): 1; CA germ count, 2 days (Candida albicans): 950.000; CA germ count, 7 days (Candida albicans): 15.000; CA germ count, 14 days (Candida albicans): 36; SA germ count, 14 days (Staphylococcus aureus; [1]): 1; SA germ count, 28 days (Staphylococcus aureus; [1]): 1 |
| CCCCCCCC(=O)OCC(O)CO (stereo not drawn) [0.2% glyceryl caprylate] | 1 | 1 | 1 | 1 | 1 | 1 | 1 |  |  |  |  |  |  |  |  |  |  |  |  |  | PA germ count, 2 days (Pseudomonas aeruginosa; [1]): 1; PA germ count, 7 days (Pseudomonas aeruginosa; [1]): 1; PA germ count, 14 days (Pseudomonas aeruginosa; [1]): 1; PA germ count, 28 days (Pseudomonas aeruginosa; [1]): 1; CA germ count, 2 days (Candida albicans): 12.000; CA germ count, 7 days (Candida albicans): 260; CA germ count, 14 days (Candida albicans): 1; SA germ count, 14 days (Staphylococcus aureus; [1]): 1; SA germ count, 28 days (Staphylococcus aureus; [1]): 1 |
| CCCCCCCC(=O)OCC(O)CO (stereo not drawn) [0.1% glyceryl caprylate] | 1 | 1 | 1 | 1 | 220.000 | 15.000 | 1 |  |  |  |  |  |  |  |  |  |  |  |  |  | PA germ count, 2 days (Pseudomonas aeruginosa; [1]): 1.800; PA germ count, 7 days (Pseudomonas aeruginosa; [1]): 690; PA germ count, 14 days (Pseudomonas aeruginosa; [1]): 2.400; PA germ count, 28 days (Pseudomonas aeruginosa; [1]): 39.000; CA germ count, 2 days (Candida albicans): 990.000; CA germ count, 7 days (Candida albicans): 690.000; CA germ count, 14 days (Candida albicans): 280.000; SA germ count, 14 days (Staphylococcus aureus; [1]): 1; SA germ count, 28 days (Staphylococcus aureus; [1]): 1 |
| CC(C)(C)C(=O)C(Oc1ccc(Cl)cc1)n1ccnc1 (stereo not drawn) [0.4% Climbazole] |  |  |  |  |  |  |  |  |  |  | 940.000 | 810.000 | 690 | 1 | 340.000 | 1 | 1 | 1 | 760.000 | 72.000 | count at 2 days (Escherichia coli): 940.000 |
| CCCCC(O)C(C)O (stereo not drawn) [0.4% 2,3 Heptandiol] |  |  |  |  |  |  |  | 1 | 1 | 1 | 1 | 1 | 1 | 1 |  | 1 | 1 | 1 | 39.000 | 76.000 |  |

Reference: US20230293407A1, “Compositions Comprising (Bio)-Alkanediols with Antimicrobials for Product Protection” (Symrise AG, priority 2020, published 2023)
